Measurements reported in ChEMBL document CHEMBL1148870, “Novel inhibitors of VEGF receptors-1 and -2 based on azole-5-carboxamide templates” (Bioorg Med Chem Lett, 2007).
Active and inactive are the calls of the source. The rule behind the calls is not given here.

Experiments:
DU-145 = experiment: Cytotoxicity against human DU145 cells after 24 hrs; assay type: functional; conditions: DU-145, 24 h
[1] = target: RAC-alpha serine/threonine-protein kinase (Homo sapiens) (UniProt P31749); experiment: Inhibition of PKB/Akt at 10 uM; design: scale not given: the % may be the effect or the level left
RAC-alpha serine/threonine-protein kinase (Homo sapiens), sequence (P31749 whole entry): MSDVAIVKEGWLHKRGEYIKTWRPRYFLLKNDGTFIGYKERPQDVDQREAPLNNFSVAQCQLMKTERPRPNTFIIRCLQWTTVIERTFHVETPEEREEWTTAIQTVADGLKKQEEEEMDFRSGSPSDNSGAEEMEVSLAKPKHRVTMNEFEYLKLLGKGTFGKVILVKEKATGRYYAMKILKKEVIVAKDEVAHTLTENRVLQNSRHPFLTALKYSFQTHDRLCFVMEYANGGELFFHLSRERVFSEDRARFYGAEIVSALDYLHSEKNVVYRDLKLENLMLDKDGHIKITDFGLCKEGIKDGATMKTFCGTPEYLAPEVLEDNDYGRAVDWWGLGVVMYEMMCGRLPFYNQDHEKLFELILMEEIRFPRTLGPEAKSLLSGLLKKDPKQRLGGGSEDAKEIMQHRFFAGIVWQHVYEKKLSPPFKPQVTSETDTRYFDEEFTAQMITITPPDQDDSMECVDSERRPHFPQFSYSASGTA

[2] = target: Glycogen synthase kinase-3 beta (Homo sapiens) (UniProt P49841); experiment: Inhibition of GSK3-beta at 10 uM; design: scale not given: the % may be the effect or the level left
Glycogen synthase kinase-3 beta (Homo sapiens), sequence (P49841 whole entry, looked up): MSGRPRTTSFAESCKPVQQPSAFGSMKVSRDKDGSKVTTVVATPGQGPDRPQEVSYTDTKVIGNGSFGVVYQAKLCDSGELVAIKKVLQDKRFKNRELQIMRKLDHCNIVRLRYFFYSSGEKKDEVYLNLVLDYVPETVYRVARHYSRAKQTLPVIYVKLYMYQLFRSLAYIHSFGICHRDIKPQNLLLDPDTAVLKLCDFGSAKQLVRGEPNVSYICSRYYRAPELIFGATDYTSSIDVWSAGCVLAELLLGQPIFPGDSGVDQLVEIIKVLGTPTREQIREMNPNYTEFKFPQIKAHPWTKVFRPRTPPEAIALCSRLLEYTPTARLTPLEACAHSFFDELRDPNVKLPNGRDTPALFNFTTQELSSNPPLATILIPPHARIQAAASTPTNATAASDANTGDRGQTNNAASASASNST

[3] = target: Vascular endothelial growth factor receptor 3 (Homo sapiens) (UniProt P35916); experiment: Inhibition of Flt4 at 10 uM; design: scale not given: the % may be the effect or the level left
Homo sapiens [4] = species on record: Homo sapiens; experiment: Inhibition of bcr-Abl at 10 uM; design: scale not given: the % may be the effect or the level left
[5] = target: Receptor tyrosine-protein kinase erbB-2 (Homo sapiens) (UniProt P04626); experiment: Inhibition of ErbB2/Her2 at 10 uM; design: scale not given: the % may be the effect or the level left
Receptor tyrosine-protein kinase erbB-2 (Homo sapiens), sequence (P04626 whole entry): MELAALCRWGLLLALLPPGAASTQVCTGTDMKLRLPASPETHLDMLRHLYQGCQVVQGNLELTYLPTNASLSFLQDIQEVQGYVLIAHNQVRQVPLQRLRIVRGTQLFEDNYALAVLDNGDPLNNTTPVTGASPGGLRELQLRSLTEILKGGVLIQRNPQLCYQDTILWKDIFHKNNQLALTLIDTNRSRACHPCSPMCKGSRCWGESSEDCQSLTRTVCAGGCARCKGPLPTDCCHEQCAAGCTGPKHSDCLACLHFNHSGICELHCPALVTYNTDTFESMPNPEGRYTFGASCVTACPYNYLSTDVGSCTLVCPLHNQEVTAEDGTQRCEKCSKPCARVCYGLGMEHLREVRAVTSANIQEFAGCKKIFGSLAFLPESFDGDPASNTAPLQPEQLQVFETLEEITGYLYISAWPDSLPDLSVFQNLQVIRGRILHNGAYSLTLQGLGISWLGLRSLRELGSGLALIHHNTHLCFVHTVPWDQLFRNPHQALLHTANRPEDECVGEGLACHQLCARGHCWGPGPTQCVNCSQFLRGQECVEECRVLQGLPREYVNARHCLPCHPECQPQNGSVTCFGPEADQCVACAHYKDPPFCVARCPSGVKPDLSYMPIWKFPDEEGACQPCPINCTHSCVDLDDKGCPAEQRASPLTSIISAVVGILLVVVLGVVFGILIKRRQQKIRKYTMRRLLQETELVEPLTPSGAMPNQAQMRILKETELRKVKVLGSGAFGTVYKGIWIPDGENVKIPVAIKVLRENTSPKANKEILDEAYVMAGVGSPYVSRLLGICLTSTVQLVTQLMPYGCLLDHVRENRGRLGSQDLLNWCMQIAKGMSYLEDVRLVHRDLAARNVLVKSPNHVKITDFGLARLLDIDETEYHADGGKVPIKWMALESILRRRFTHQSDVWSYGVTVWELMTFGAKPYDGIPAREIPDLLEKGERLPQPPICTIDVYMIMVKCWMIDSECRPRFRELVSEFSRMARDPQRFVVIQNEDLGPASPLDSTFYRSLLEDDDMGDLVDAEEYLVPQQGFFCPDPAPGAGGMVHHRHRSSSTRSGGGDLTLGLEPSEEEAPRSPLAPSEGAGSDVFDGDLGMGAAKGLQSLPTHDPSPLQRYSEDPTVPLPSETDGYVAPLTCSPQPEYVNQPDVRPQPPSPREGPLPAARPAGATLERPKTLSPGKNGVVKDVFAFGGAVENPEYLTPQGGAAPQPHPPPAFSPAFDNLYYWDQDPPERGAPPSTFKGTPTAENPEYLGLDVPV

[6] = target: Cyclin-dependent kinase 2 (Homo sapiens) (UniProt P24941); experiment: Inhibition of Cdk2 at 10 uM; design: scale not given: the % may be the effect or the level left
A-431 = experiment: Cytotoxicity against human A431 cells after 24 hrs; assay type: functional; conditions: A-431, 24 h
[7] = target: T1, Vascular endothelial growth factor receptor 2 (Homo sapiens, UniProt P35968); experiment: Inhibition of VEGFR2 assessed as inhibition of phosphorylation in presence of 2 uM ATP by HTRF assay; assay type: functional
[8] = target: T1, Vascular endothelial growth factor receptor 2; experiment: Inhibition of VEGFR2 assessed as inhibition of phosphorylation in human 293 cells by cell-based ELISA; assay type: functional, HEK293
[9] = target: Hepatocyte growth factor receptor (Homo sapiens) (UniProt P08581); experiment: Inhibition of cMet at 10 uM; design: scale not given: the % may be the effect or the level left
[10] = target: Fibroblast growth factor receptor 1 (Homo sapiens) (UniProt P11362); experiment: Inhibition of FGFR1 at 10 uM; design: scale not given: the % may be the effect or the level left
Fibroblast growth factor receptor 1 (Homo sapiens), sequence (P11362 22-822 limits assumed): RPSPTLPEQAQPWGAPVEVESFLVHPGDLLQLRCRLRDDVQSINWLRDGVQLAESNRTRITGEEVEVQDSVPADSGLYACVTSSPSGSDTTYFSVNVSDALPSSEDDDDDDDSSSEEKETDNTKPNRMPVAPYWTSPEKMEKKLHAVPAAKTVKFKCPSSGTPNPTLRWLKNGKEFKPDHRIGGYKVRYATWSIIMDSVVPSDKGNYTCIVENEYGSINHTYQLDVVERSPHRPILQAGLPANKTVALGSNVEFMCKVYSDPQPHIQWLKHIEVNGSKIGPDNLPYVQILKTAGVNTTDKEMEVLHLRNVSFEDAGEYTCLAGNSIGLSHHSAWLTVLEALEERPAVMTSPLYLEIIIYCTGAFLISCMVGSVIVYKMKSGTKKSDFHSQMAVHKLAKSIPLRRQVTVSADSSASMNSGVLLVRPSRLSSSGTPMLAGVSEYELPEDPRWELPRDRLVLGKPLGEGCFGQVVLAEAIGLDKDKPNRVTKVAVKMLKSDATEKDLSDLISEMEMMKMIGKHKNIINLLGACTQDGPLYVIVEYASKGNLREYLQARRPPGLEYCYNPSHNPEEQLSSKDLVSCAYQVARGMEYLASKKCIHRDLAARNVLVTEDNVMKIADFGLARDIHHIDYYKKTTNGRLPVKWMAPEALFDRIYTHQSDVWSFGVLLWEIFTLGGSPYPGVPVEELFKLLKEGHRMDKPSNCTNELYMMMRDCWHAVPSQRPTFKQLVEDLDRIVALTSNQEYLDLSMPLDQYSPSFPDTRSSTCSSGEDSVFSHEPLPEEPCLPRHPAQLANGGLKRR

[11] = target: Receptor-type tyrosine-protein kinase FLT3 (Homo sapiens) (UniProt P36888); experiment: Inhibition of Flt3 at 10 uM; design: scale not given: the % may be the effect or the level left
HEK293 = experiment: Cytotoxicity against HEK293 cells after 24 hrs; assay type: functional, cell-based; conditions: Homo sapiens
[12] = target: RAF proto-oncogene serine/threonine-protein kinase (Homo sapiens) (UniProt P04049); experiment: Inhibition of Raf1 at 10 uM; design: scale not given: the % may be the effect or the level left
RAF proto-oncogene serine/threonine-protein kinase (Homo sapiens), sequence (P04049 whole entry): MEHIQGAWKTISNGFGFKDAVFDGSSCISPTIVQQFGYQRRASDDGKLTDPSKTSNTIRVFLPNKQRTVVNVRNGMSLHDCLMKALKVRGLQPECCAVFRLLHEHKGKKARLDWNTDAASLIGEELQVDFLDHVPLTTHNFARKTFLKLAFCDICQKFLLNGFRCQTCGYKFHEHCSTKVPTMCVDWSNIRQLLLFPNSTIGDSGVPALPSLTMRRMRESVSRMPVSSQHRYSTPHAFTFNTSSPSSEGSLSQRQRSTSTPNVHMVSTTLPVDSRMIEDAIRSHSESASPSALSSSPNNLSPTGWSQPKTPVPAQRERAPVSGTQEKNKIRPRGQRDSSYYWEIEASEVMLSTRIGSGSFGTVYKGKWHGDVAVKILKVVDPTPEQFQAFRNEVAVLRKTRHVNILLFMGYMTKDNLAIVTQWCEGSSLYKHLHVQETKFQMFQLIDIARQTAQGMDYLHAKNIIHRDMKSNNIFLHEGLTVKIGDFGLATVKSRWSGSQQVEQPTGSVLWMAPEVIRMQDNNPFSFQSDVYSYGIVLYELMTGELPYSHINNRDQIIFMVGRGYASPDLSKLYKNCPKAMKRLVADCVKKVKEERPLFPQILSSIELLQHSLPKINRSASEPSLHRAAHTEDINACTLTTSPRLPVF

[13] = target: Epidermal growth factor receptor (Homo sapiens) (UniProt P00533); experiment: Inhibition of ErbB1 at 10 uM; design: scale not given: the % may be the effect or the level left
[14] = target: Vascular endothelial growth factor receptor 1 (Homo sapiens, UniProt P17948); experiment: Inhibition of VEGFR1 assessed as inhibition of phosphorylation in presence of 2 uM ATP by HTRF assay; assay type: functional
DLD-1 = experiment: Cytotoxicity against human DLD1 cells after 24 hrs; assay type: functional; conditions: DLD-1, 24 h
Homo sapiens [15] = species on record: Homo sapiens; experiment: Inhibition of PKA at 10 uM; design: scale not given: the % may be the effect or the level left
[16] = target: Insulin-like growth factor 1 receptor (Homo sapiens) (UniProt P08069); experiment: Inhibition of IGF1R at 10 uM; design: scale not given: the % may be the effect or the level left
Insulin-like growth factor 1 receptor (Homo sapiens), sequence (P08069 31-736 limits assumed): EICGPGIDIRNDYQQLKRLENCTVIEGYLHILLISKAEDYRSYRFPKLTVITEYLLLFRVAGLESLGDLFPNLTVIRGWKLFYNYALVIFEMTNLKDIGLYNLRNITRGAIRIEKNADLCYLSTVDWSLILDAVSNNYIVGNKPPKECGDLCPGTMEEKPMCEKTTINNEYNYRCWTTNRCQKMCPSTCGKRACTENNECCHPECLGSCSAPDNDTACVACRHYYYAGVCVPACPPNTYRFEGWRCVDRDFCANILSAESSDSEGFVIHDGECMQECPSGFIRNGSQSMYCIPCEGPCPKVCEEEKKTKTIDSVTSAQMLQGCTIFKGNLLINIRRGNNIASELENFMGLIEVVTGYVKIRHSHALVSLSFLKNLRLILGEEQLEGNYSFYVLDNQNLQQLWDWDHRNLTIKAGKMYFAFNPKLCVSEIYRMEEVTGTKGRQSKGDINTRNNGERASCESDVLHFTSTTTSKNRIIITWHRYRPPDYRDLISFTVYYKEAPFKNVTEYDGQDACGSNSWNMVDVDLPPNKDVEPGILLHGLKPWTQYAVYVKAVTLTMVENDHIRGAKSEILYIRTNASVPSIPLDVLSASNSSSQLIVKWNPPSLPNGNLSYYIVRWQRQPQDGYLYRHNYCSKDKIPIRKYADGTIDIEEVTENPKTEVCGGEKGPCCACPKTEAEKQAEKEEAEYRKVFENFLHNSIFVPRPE
Insulin-like growth factor 1 receptor (Homo sapiens), sequence (P08069 741-1367 limits assumed): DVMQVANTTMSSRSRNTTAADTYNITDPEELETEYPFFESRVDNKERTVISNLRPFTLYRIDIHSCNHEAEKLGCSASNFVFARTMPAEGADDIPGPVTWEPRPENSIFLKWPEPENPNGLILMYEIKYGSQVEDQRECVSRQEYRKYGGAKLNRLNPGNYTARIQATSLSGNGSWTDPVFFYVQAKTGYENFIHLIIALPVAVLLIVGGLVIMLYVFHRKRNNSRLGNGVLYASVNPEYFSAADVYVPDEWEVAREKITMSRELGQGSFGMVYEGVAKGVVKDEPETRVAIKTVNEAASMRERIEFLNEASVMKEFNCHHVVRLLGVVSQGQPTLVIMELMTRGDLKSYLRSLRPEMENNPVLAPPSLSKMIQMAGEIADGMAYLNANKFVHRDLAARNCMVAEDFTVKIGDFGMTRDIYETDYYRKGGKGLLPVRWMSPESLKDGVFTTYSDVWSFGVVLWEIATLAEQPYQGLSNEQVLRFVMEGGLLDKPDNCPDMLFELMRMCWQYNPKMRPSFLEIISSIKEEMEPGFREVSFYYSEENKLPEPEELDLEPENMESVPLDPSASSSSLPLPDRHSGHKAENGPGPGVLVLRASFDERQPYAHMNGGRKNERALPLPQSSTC

Homo sapiens [17] = species on record: Homo sapiens; experiment: Inhibition of Cdk1 at 10 uM; design: scale not given: the % may be the effect or the level left
Homo sapiens [18] = species on record: Homo sapiens; experiment: Inhibition of InR at 10 uM; design: scale not given: the % may be the effect or the level left
[19] = Passive diffusion assessed as intrinsic permeability across Caco-2 cell membrane; assay type: ADME, cell-based; conditions: human, read-out: permeability (converted)
[20] = target: T1, Vascular endothelial growth factor receptor 2; experiment: Displacement of [32P]ATP from human VEGFR2 after 45 mins
Caco-2 = experiment: Passive diffusion assessed as absorption potential across Caco-2 cell membrane; assay type: ADME, cell-based; conditions: human

Row | SMILES | Activity [1] [%] | Activity [2] [%] | Activity [3] [%] | Activity (Homo sapiens [4]) [%] | Activity [5] [%] | Activity [6] [%] | IC50 [7] [nM] | IC50 [8] [nM] | Activity [9] [%] | Activity [10] [%] | Activity [11] [%] | Activity [12] [%] | Activity [13] [%] | IC50 [14] [nM] | Activity (Homo sapiens [15]) [%] | Activity [16] [%] | Activity (Homo sapiens [17]) [%] | Activity (Homo sapiens [18]) [%] | Papp [19] [×10⁻⁶ cm/s] | Ki [7] [nM] | other results
1 | COc1ccc(NC(=O)c2ccnn2CCc2ccncc2)cc1OC | > 30 | > 30 | > 30 | > 30 | > 30 | > 30 | 440 | 90 | > 30 | > 30 | > 30 | > 30 | < 30 | 1230 | > 30 | > 30 | > 30 | > 30 | – | – | GI50 (DU-145): 220 nM; GI50 (A-431): 50 nM; Activity (HEK293): Active; GI50 (DLD-1): 125 nM
2 | O=C(Nc1ccc(OC(F)(F)F)cc1)c1ccnn1CCc1ccncc1 | > 30 | > 30 | > 30 | > 30 | > 30 | > 30 | 28 | 18 | > 30 | > 30 | > 30 | > 30 | < 30 | 190 | > 30 | > 30 | > 30 | > 30 | 7.03 | 90 | Ki [20]: 80 nM; Activity (Caco-2): Active
3 | CC(C)(C)c1ccc(NC(=O)c2ccnn2CCc2ccncc2)cc1 | > 30 | > 30 | > 30 | > 30 | > 30 | > 30 | 42 | 33 | > 30 | > 30 | > 30 | > 30 | < 30 | 590 | > 30 | > 30 | > 30 | > 30 | 7.43 | 130 | Ki [20]: 140 nM; Activity (Caco-2): Active
4 | O=C(Nc1ccc(C(F)(F)F)c(Cl)c1)c1ccnn1CCc1ccncc1 | > 30 | > 30 | > 30 | > 30 | > 30 | > 30 | 180 | 95 | > 30 | > 30 | > 30 | > 30 | < 30 | 980 | > 30 | > 30 | > 30 | > 30 | 4.6 | 170 | Ki [20]: 160 nM; Activity (Caco-2): Active
